Measurements published in patent publication US20050112573A1, “Method of detecting toxic substance” (priority 2001, published 2005).

Test system: yeast genes (level of expressed mRNA)
Assay: DNA chip analysis of expressed mRNA of yeast genes after 2 h culture with a toxic chemical substance
Format: cell-based, Saccharomyces cerevisiae S288C
Protocol: Yeast (Saccharomyces cerevtisiae S288C (α SUC2mal mel gap2 CUP1)) were cultured at 25° C. on YPD medium (yeast extract 1%, polypepton 2%, glucose 2%). One of toxic chemical substances was added to the cell at logarithmic growth phase, and the cell was further cultured for two hours. Cell was cultured without any chemical substance in the same condition, and was used as control. Concentrations of the chemical substances were defined to inhibit the growth of the yeast but not lead to death.
After the completion of cultivation, the culture was centrifuged to collect the cells. To the cells, sodium acetate buffer (50 mM sodium acetate, 10 mM EDTA, 1% SDS) was added, and the mixture was shaken at 65° C. for five minutes, followed by returning to room temperature, and obtaining the supernatant, which procedure was repeated two times. To the supernatant, ½ amount of a solution of phenol/chloroform was added, and the mixture was centrifuged to give a supernatant, which was added with an equal amount of chloroform, and the mixture was centrifuged to give a supernatant. To the supernatant, an equal amount of isopropanol containing 0.3 M sodium acetate was added, and the mixture was allowed to stand at room temperature for 30 minutes, after which the mixture was centrifuged to give a sediment of the whole RNAs. Seventy % ethanol was added to the sediment, and the mixture was again centrifuged to give a sediment, which was then dried and dissolved in water. mRNA was isolated from the whole RNAs as followings. In view of the fact that a poly A chain is attached to the 3′ terminus of mRNA, a polynucleotide having a poly T structure which was immobilized on the surface of latex beads was used to trap the mRNA, and then the mRNA was washed and eluted with spine column (Oligotex-dT30<Super>mRNA Purification Kit, Takara). Reverse transcription of the mRNA was conducted with a reverse transcriptase (Super Script II Reverse Transcriptase; catalogue No. 18064-014, GibcoBRL) using fluorescence-labeled nucleotides to give cDNAs that were introduced with Cy3-dUTP or Cy5-dUTP during the reverse transcription.
The labeled cDNAs were dissolved in TE buffer (10 mM Tris-HCl/1 mM EDTA, pH8.0), and the solution was dropped on the DNA chip containing the whole genes of yeast (DNA Chip Research Inc. Japan) so that the cDNAs were hybridized on the DNA chip at 65° C. for over 12 hours. The fluoresces intensity of the DNA chip was read with a scanner, and the ratio relative to the fluorescence intensity resulting from the absence of chemical substance was estimated as the following, which is shown in Tables 1 to 9: [formula]
In the Tables, “Intensity” indicated in the rightmost column is a value of the level of expressed mRNA of each gene in control cells as divided by the average level of the expressions of the whole genes.

COc1cc(CNC(=O)CCCCC=CC(C)C)ccc1O [(12), 8-methyl-N-vanillyl-6-nonenamide]
1.2: level of expressed mRNA in the presence of chemical substance/in its absence (gene YMR272C) | level of expressed mRNA in the presence of chemical substance/in its absence (gene YNR002C) | level of expressed mRNA in the presence of chemical substance/in its absence (gene YOL143C) | level of expressed mRNA in the presence of chemical substance/in its absence (gene YOL157C) | level of expressed mRNA in the presence of chemical substance/in its absence (gene YOR136W)
1.8: level of expressed mRNA in the presence of chemical substance/in its absence (gene YNL231C)
0.7: The level of expressed mRNA in the presence of chemical substance/absence: YHR105W (gene YHR105W) | The level of expressed mRNA in the presence of chemical substance/absence: YHR180W (gene YHR180W) | The level of expressed mRNA in the presence of chemical substance/absence: YIL108W (gene YIL108W) | The level of expressed mRNA in the presence of chemical substance/absence: YIL127C (gene YIL127C) | level of expressed mRNA in the presence of chemical substance/in its absence (gene YIL167W) | level of expressed mRNA in the presence of chemical substance/in its absence (gene YJL088W) | The level of expressed mRNA in the presence of chemical substance/absence: YJR044C (gene YJR044C) | The level of expressed mRNA in the presence of chemical substance/absence: YLR226W (gene YLR226W) | level of expressed mRNA in the presence of chemical substance/in its absence (gene YLR307W) | The level of expressed mRNA in the presence of chemical substance/absence: YMR068W (gene YMR068W) | The level of expressed mRNA in the presence of chemical substance/absence: YMR071C (gene YMR071C) | level of expressed mRNA in the presence of chemical substance/in its absence (gene YNL322C) | The level of expressed mRNA in the presence of chemical substance/absence: YOR253W (gene YOR253W)
0.9: The level of expressed mRNA in the presence of chemical substance/absence: YHR083W (gene YHR083W) | The level of expressed mRNA in the presence of chemical substance/absence: YIL165C (gene YIL165C) | level of expressed mRNA in the presence of chemical substance/in its absence (gene YIR035C) | The level of expressed mRNA in the presence of chemical substance/absence: YJR030C (gene YJR030C) | The level of expressed mRNA in the presence of chemical substance/absence: YKL059C (gene YKL059C) | level of expressed mRNA in the presence of chemical substance/in its absence (gene YKL067W) | The level of expressed mRNA in the presence of chemical substance/absence: YKL094W (gene YKL094W) | The level of expressed mRNA in the presence of chemical substance/absence: YKL100C (gene YKL100C) | level of expressed mRNA in the presence of chemical substance/in its absence (gene YLR273C) | The level of expressed mRNA in the presence of chemical substance/absence: YLR427W (gene YLR427W) | The level of expressed mRNA in the presence of chemical substance/absence: YML013W (gene YML013W) | The level of expressed mRNA in the presence of chemical substance/absence: YML118W (gene YML118W) | The level of expressed mRNA in the presence of chemical substance/absence: YMR114C (gene YMR114C) | The level of expressed mRNA in the presence of chemical substance/absence: YMR258C (gene YMR258C) | The level of expressed mRNA in the presence of chemical substance/absence: YNL026W (gene YNL026W) | level of expressed mRNA in the presence of chemical substance/in its absence (gene YNL045W) | level of expressed mRNA in the presence of chemical substance/in its absence (gene YNL130C) | The level of expressed mRNA in the presence of chemical substance/absence: YNL200C (gene YNL200C) | The level of expressed mRNA in the presence of chemical substance/absence: YNL276C (gene YNL276C) | The level of expressed mRNA in the presence of chemical substance/absence: YNR051C (gene YNR051C) | The level of expressed mRNA in the presence of chemical substance/absence: YOL026C (gene YOL026C) | The level of expressed mRNA in the presence of chemical substance/absence: YOL030W (gene YOL030W) | level of expressed mRNA in the presence of chemical substance/in its absence (gene YOR130C) | The level of expressed mRNA in the presence of chemical substance/absence: YOR138C (gene YOR138C) | The level of expressed mRNA in the presence of chemical substance/absence: YOR267C (gene YOR267C) | The level of expressed mRNA in the presence of chemical substance/absence: YOR325W (gene YOR325W)
0.8: The level of expressed mRNA in the presence of chemical substance/absence: YHR181W (gene YHR181W) | The level of expressed mRNA in the presence of chemical substance/absence: YJL037W (gene YJL037W) | The level of expressed mRNA in the presence of chemical substance/absence: YJL049W (gene YJL049W) | level of expressed mRNA in the presence of chemical substance/in its absence (gene YJR142W) | level of expressed mRNA in the presence of chemical substance/in its absence (gene YJR148W) | The level of expressed mRNA in the presence of chemical substance/absence: YKL051W (gene YKL051W) | The level of expressed mRNA in the presence of chemical substance/absence: YKR040C (gene YKR040C) | The level of expressed mRNA in the presence of chemical substance/absence: YLR097C (gene YLR097C) | level of expressed mRNA in the presence of chemical substance/in its absence (gene YLR142W) | The level of expressed mRNA in the presence of chemical substance/absence: YLR415C (gene YLR415C) | The level of expressed mRNA in the presence of chemical substance/absence: YML041C (gene YML041C) | level of expressed mRNA in the presence of chemical substance/in its absence (gene YMR296C) | level of expressed mRNA in the presence of chemical substance/in its absence (gene YNL106C) | The level of expressed mRNA in the presence of chemical substance/absence: YNL181W (gene YNL181W) | The level of expressed mRNA in the presence of chemical substance/absence: YNL212W (gene YNL212W) | The level of expressed mRNA in the presence of chemical substance/absence: YNL253W (gene YNL253W) | The level of expressed mRNA in the presence of chemical substance/absence: YNL265C (gene YNL265C) | level of expressed mRNA in the presence of chemical substance/in its absence (gene YNR059W) | The level of expressed mRNA in the presence of chemical substance/absence: YOR022C (gene YOR022C) | The level of expressed mRNA in the presence of chemical substance/absence: YOR087W (gene YOR087W)
1.1: The level of expressed mRNA in the presence of chemical substance/absence: YHL021C (gene YHL021C) | level of expressed mRNA in the presence of chemical substance/in its absence (gene YHR037W) | level of expressed mRNA in the presence of chemical substance/in its absence (gene YHR190W) | level of expressed mRNA in the presence of chemical substance/in its absence (gene YIL033C) | level of expressed mRNA in the presence of chemical substance/in its absence (gene YIL154C) | level of expressed mRNA in the presence of chemical substance/in its absence (gene YJL196C) | The level of expressed mRNA in the presence of chemical substance/absence: YML029W (gene YML029W) | The level of expressed mRNA in the presence of chemical substance/absence: YML079W (gene YML079W) | level of expressed mRNA in the presence of chemical substance/in its absence (gene YML110C) | level of expressed mRNA in the presence of chemical substance/in its absence (gene YNL104C) | level of expressed mRNA in the presence of chemical substance/in its absence (gene YNR033W) | level of expressed mRNA in the presence of chemical substance/in its absence (gene YOL126C) | level of expressed mRNA in the presence of chemical substance/in its absence (gene YOR099W)
1.7: level of expressed mRNA in the presence of chemical substance/in its absence (gene YMR105C)
1.3: The level of expressed mRNA in the presence of chemical substance/absence: YJL017W (gene YJL017W) | level of expressed mRNA in the presence of chemical substance/in its absence (gene YMR271C) | level of expressed mRNA in the presence of chemical substance/in its absence (gene YNL012W) | level of expressed mRNA in the presence of chemical substance/in its absence (gene YNL037C) | level of expressed mRNA in the presence of chemical substance/in its absence (gene YOL058W)
1.9: level of expressed mRNA in the presence of chemical substance/in its absence (gene YOL153C)
1.0: The level of expressed mRNA in the presence of chemical substance/absence: YHL006C (gene YHL006C) | level of expressed mRNA in the presence of chemical substance/in its absence (gene YHR092C) | The level of expressed mRNA in the presence of chemical substance/absence: YHR134W (gene YHR134W) | The level of expressed mRNA in the presence of chemical substance/absence: YJL097W (gene YJL097W) | level of expressed mRNA in the presence of chemical substance/in its absence (gene YJL132W) | The level of expressed mRNA in the presence of chemical substance/absence: YMR115W (gene YMR115W) | The level of expressed mRNA in the presence of chemical substance/absence: YMR160W (gene YMR160W) | The level of expressed mRNA in the presence of chemical substance/absence: YNL058C (gene YNL058C) | The level of expressed mRNA in the presence of chemical substance/absence: YNL063W (gene YNL063W) | level of expressed mRNA in the presence of chemical substance/in its absence (gene YNL169C) | level of expressed mRNA in the presence of chemical substance/in its absence (gene YNR019W) | level of expressed mRNA in the presence of chemical substance/in its absence (gene YOR336W)
1.5: level of expressed mRNA in the presence of chemical substance/in its absence (gene YJR159W) | level of expressed mRNA in the presence of chemical substance/in its absence (gene YKR039W)
0.5: The level of expressed mRNA in the presence of chemical substance/absence: YJL032W (gene YJL032W) | level of expressed mRNA in the presence of chemical substance/in its absence (gene YLR300W) | The level of expressed mRNA in the presence of chemical substance/absence: YNL191W (gene YNL191W) | The level of expressed mRNA in the presence of chemical substance/absence: YNL194C (gene YNL194C) | The level of expressed mRNA in the presence of chemical substance/absence: YOR155C (gene YOR155C)
0.6: The level of expressed mRNA in the presence of chemical substance/absence: YHL037C (gene YHL037C) | The level of expressed mRNA in the presence of chemical substance/absence: YHR095W (gene YHR095W) | level of expressed mRNA in the presence of chemical substance/in its absence (gene YHR137W) | The level of expressed mRNA in the presence of chemical substance/absence: YKL090W (gene YKL090W) | The level of expressed mRNA in the presence of chemical substance/absence: YKL097C (gene YKL097C) | level of expressed mRNA in the presence of chemical substance/in its absence (gene YLR180W) | The level of expressed mRNA in the presence of chemical substance/absence: YLR338W (gene YLR338W) | The level of expressed mRNA in the presence of chemical substance/absence: YLR339C (gene YLR339C) | The level of expressed mRNA in the presence of chemical substance/absence: YLR392C (gene YLR392C) | level of expressed mRNA in the presence of chemical substance/in its absence (gene YMR189W) | The level of expressed mRNA in the presence of chemical substance/absence: YNL176C (gene YNL176C) | The level of expressed mRNA in the presence of chemical substance/absence: YOR088W (gene YOR088W)
